The text below walks through data of PubChem BioAssay (NCI).

Some test systems named below: T-47D breast; U251 CNS; SW-620 colon; MOLT-4 leukemia; K-562 leukemia; OVCAR-4 ovarian; PC-3 prostate; HCT-15 colon; UACC-257 melanoma; SF-539 CNS.
Test in all cases: NCI anticancer screen, dose series, 48 h

Each structure is given as a SMILES string. Where “and” joins values, the source holds several entries; their conditions need not be identical. Equal values may be shown once.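 Cultured in 96-well plates, cells were exposed to test compound for 48 hours across five concentrations. GI50 = concentration required for 50% inhibition of growth. TGI denotes the concentration required for complete inhibition of growth.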

Turning to `CC(C)=CC1C(C(=O)OCc2cc3c(cc2Cl)OCO3)C1(C)C` (stereo unspecified), the TGI with T-47D breast was more than 100 µM; in the assay on U251 CNS, 35.1 µM; in the assay with SW-620 colon it was more than 100 µM; in the assay on MOLT-4 leukemia, 31.5 µM; in the assay with K-562 leukemia, more than 100 µM; with OVCAR-4 ovarian, more than 100 µM. Also, the TGI in the assay with PC-3 prostate was 36 µM; in the assay on HCT-15 colon, more than 100 µM; in the assay on UACC-257 melanoma, 48.1 µM.

Turning to `Cc1cccc2c1nc1n2C(=O)c2ccccc2-1`, the TGI with U251 CNS, in the assay with SW-620 colon, with MOLT-4 leukemia, with K-562 leukemia, in the assay with OVCAR-4 ovarian and in the assay on SF-539 CNS was more than 100 µM each time. For the same molecule, the TGI in the assay on PC-3 prostate, in the assay with HCT-15 colon and in the assay on UACC-257 melanoma was more than 100 µM throughout.

`BrC1(c2ccccc2)C[n+]2c(-c3ccccc3)cc(-c3ccccc3)cc2-c2ccccc21` (stereo unspecified): the TGI with U251 CNS amounted to 1.2 µM; in the assay on SW-620 colon, 11.4 µM; with MOLT-4 leukemia, 6.38 µM; with K-562 leukemia, 1.48 µM; in the assay on OVCAR-4 ovarian, 28 µM; in the assay on SF-539 CNS it was 11.4 µM. Moreover, the TGI in the assay with PC-3 prostate amounted to 3.45 µM; with HCT-15 colon it was 12 µM; with UACC-257 melanoma, 2.55 µM.

Regarding `O=C(/C=C\c1ccccc1)Oc1ccc(/C=C2\CCC/C(=C\c3ccc(OC(=O)/C=C\c4ccccc4)cc3)C2=O)cc1`, the TGI in the assay with T-47D breast, in the assay on U251 CNS, in the assay on SW-620 colon, with MOLT-4 leukemia, with OVCAR-4 ovarian and in the assay with SF-539 CNS was more than 100 µM in each case. Moreover, the TGI in the assay on PC-3 prostate, with HCT-15 colon and in the assay with UACC-257 melanoma was more than 100 µM throughout.

Regarding `COCOC1CCCC[C@@]1(OCCOCCO[C@@]1(c2ccccc2)CCCC[C@H]1OCOC)c1ccccc1` (stereo partly specified), the TGI in the assay with U251 CNS, in the assay on SW-620 colon, in the assay with K-562 leukemia, with OVCAR-4 ovarian and in the assay with UACC-257 melanoma was more than 100 µM each time.

With `COc1ccc(/C(C=O)=C(\Cl)c2ccc(OC)c(OC)c2)cc1`, the TGI in the assay on U251 CNS, with SW-620 colon, with MOLT-4 leukemia, in the assay on K-562 leukemia, in the assay on OVCAR-4 ovarian and with SF-539 CNS was more than 100 µM each time. Besides, the TGI in the assay on HCT-15 colon and with UACC-257 melanoma was more than 100 µM each time.

`COc1ccc(O[C@H](CO)C[C@@H]2COC(C)(C)O2)cc1`: the TGI in the assay on U251 CNS, in the assay on SW-620 colon, in the assay with MOLT-4 leukemia, in the assay on K-562 leukemia, in the assay on OVCAR-4 ovarian and in the assay on SF-539 CNS was more than 100 µM each time. The TGI with PC-3 prostate, in the assay on HCT-15 colon and with UACC-257 melanoma was more than 100 µM throughout.

On to `COC(=O)C(Cc1ccccc1)NC(=O)C(CNC(=O)OCc1ccccc1)C(=O)OCc1ccccc1` (stereo unspecified), for which the TGI in the assay with T-47D breast is more than 100 µM; in the assay with U251 CNS, more than 100 µM; with MOLT-4 leukemia it was > 100 µM and 30.3 µM; with K-562 leukemia, more than 100 µM; in the assay on PC-3 prostate it was more than 100 µM; in the assay on HCT-15 colon, more than 100 µM. The GI50 with MOLT-4 leukemia is > 100 µM and 10.4 µM.

For `NC1CCC2(O)c3ccccc3C2C1` (stereo unspecified), the TGI in the assay with U251 CNS, in the assay with SW-620 colon, in the assay on MOLT-4 leukemia, in the assay with K-562 leukemia, in the assay on OVCAR-4 ovarian and with HCT-15 colon was more than 100 µM each time. In the assay on UACC-257 melanoma, this molecule showed a TGI of more than 100 µM.

As to `C=CCOC(C)(C)C1=CCC(C)CC1` (stereo unspecified), the TGI in the assay with U251 CNS, in the assay with SW-620 colon, in the assay with MOLT-4 leukemia, with OVCAR-4 ovarian, in the assay on SF-539 CNS and in the assay on PC-3 prostate was more than 100 µM each time. The TGI with HCT-15 colon and in the assay on UACC-257 melanoma was more than 100 µM throughout.

With `CC(C)CNP(=O)(NCC(C)C)Oc1ccc(CC(NC(=O)OCc2ccccc2)C(=O)OCc2ccccc2)cc1` (stereo unspecified), the TGI in the assay on T-47D breast was found to be 33.5 µM; in the assay on U251 CNS, 30.1 µM; in the assay on SW-620 colon, 40.2 µM; in the assay with MOLT-4 leukemia, 41.1 µM; in the assay with K-562 leukemia it was 59.4 µM; in the assay with OVCAR-4 ovarian it was 36.5 µM. The TGI with PC-3 prostate stood at 30.8 µM; in the assay on HCT-15 colon it was 89.6 µM; in the assay on UACC-257 melanoma it was 59.1 µM.

As for `O=C(O)C1CCC(=O)N1C(=O)COc1cc(Cl)c(Cl)cc1Cl` (stereo unspecified), the TGI in the assay with U251 CNS, in the assay on SW-620 colon, with OVCAR-4 ovarian, in the assay on HCT-15 colon and with UACC-257 melanoma was more than 100 µM each time.

`CCOC(=O)C1C(c2ccc(Br)cc2)N(Cc2ccccc2)C(c2ccc(Br)cc2)C(C(=O)OC)S1(=O)=O` (stereo unspecified): the TGI with SW-620 colon, in the assay on MOLT-4 leukemia, with K-562 leukemia, in the assay on OVCAR-4 ovarian, with HCT-15 colon and with UACC-257 melanoma was more than 100 µM each time.

`COC(=O)c1c(O)ccc2c1c1c(n2Cc2ccc(OC)cc2)C(=O)c2ccccc2C1`: the TGI in the assay with U251 CNS, with SW-620 colon, with MOLT-4 leukemia, with K-562 leukemia, with OVCAR-4 ovarian and in the assay with SF-539 CNS was more than 100 µM throughout. Besides, the TGI in the assay with PC-3 prostate was 59.5 µM; in the assay on HCT-15 colon it was more than 100 µM; with UACC-257 melanoma, more than 100 µM.

On to `O=[N+]([O-])/C=C/c1cc(Cl)c(/C=C/[N+](=O)[O-])cc1Cl`, for which the TGI in the assay on T-47D breast came to 6.38 µM; with SW-620 colon it was 6.06 µM; with PC-3 prostate, 9.15 µM; with HCT-15 colon it was 4.19 µM; with UACC-257 melanoma, 5.25 µM.

Regarding `CC(C)(C)C(=O)c1c(O)c2ccccc2c2ccccc2c1=O`, the TGI in the assay with T-47D breast, with U251 CNS, in the assay on SW-620 colon, with MOLT-4 leukemia, in the assay on OVCAR-4 ovarian and with SF-539 CNS was more than 100 µM throughout. Further, the TGI in the assay on PC-3 prostate, in the assay on HCT-15 colon and in the assay with UACC-257 melanoma was more than 100 µM throughout.

As to `CCOC(=O)C(Cc1ccc(N=NN(C)C)cc1)NC(=O)CC1c2ccccc2-c2ccccc21` (stereo unspecified), the TGI with U251 CNS, in the assay with SW-620 colon, with MOLT-4 leukemia, in the assay on K-562 leukemia, in the assay on OVCAR-4 ovarian and with SF-539 CNS was more than 100 µM throughout. In addition, the TGI in the assay on HCT-15 colon and in the assay on UACC-257 melanoma was more than 100 µM each time.
